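48-hour exposure; five concentrations; linearly interpolated endpoints. The concentration for 50% growth inhibition is given as GI50. At the TGI there is no net growth.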
Experiments:
Experiment in all cases: NCI tumour cell line growth inhibition, 48 h
[1] = tested on: SNB-78 CNS
[2] = tested on: LXFL 529 NSCLC
[3] = tested on: DLD-1 colon
[4] = tested on: DMS 114 small cell lung
[5] = tested on: SN12K1 renal
[6] = tested on: P388 leukemia
[7] = tested on: P388/ADR leukemia
[8] = tested on: KM20L2 colon
[9] = tested on: M19-MEL melanoma
[10] = tested on: RXF-631 renal

| Compound | TGI [1] [µM] | TGI [2] [µM] | TGI [3] [µM] | TGI [4] [µM] | TGI [5] [µM] | TGI [6] [µM] | TGI [7] [µM] | TGI [8] [µM] | TGI [9] [µM] | TGI [10] [µM] | GI50 [1] [µM] | GI50 [8] [µM] |
| --- | --- | --- | --- | --- | --- | --- | --- | --- | --- | --- | --- | --- |
| O=C(NN1C(=O)CS(=O)(=O)C1c1ccc(C(F)(F)F)cc1)c1ccncc1 (stereo not drawn) | > 100 | > 100 | > 100 | > 100 | – | – | – | – | – | – | – | – |
| COc1cc(C2c3cc4c(cc3[C@@H](Nc3ccccc3)C3COC(=O)[C@H]23)OCO4)cc(OC)c1O (stereo partly drawn) | > 91 | – | 6.64 | 3.42 | 8.65 | 2.35 | 4.59 | > 23.3 | 16.6 | – | – | – |
| O=C1NC(O)CCN1C1OC(CO)C(O)C1O (stereo not drawn) | > 250 | – | > 250 | > 250 | > 250 | > 250 | > 250 | > 127 | > 250 | – | – | – |
| CCOC(=O)/C=C1/C(CCCOCc2ccccc2)C2CCCC23CC2(CCN13)OCCO2 (stereo not drawn) | 85.8 | 90.2 | 73.3 | 32.9 | – | – | – | 56 | 40 | 94.6 | – | – |
| Nc1c(S(=O)(=O)c2ccc(Cl)cc2)c2nc3ccccc3nc2n2ccnc12 | > 100 | > 100 | > 100 | > 100 | – | – | – | – | > 100 | – | – | – |
| CN1Cc2c(nc(-c3ccccc3)c[n+]2[O-])N(C)C1 | > 100 | > 100 | > 100 | > 100 | – | – | – | > 100 | > 100 | > 100 | – | – |
| COc1ccc(CC(N)=O)cc1OC | > 1250 | – | > 1250 | > 1250 | > 1250 | > 1250 | > 1250 | > 1250 | > 1250 | – | – | – |
| C=C(CN(C)C)C(=O)c1ccc(C(=O)C(=C)CN(C)C)cc1 | – | > 100 | > 100 | – | – | – | – | > 100 | > 100 | – | – | – |
| O[C@H]1[C@H](O)[C@@H](O)CN2CC[C@H](O)[C@H]12 | > 100 | – | > 100 | > 100 | > 100 | > 100 | > 100 | > 100 | > 79.4 | – | – | – |
| O=C(NCCCl)O/N=C/c1cccnc1 | > 100 | – | > 100 | > 100 | > 100 | – | > 100 | > 100 | > 100 | – | > 100 | > 100 |

Source: PubChem BioAssay (NCI)
